Patent publication US11141410B2 (MERCK SHARP & DOHME CORP., priority 2015, dated 2021)
Read-outs that look alike come from different tables or passages of the source.

Experiments:
MRSA COL (MB5393) [1] = assay: TarO Inhibitor/β-Lactam Synergy Assay (growth, OD600); format: cell-based, Staphylococcus aureus; conditions: for MITC95 TarO inhibitor + 4 μg/mL IPM; Bacteria: SA_MB5393: in combination with 4 μg/mL imipenem (IPM); for MITC95 TarO inhibitor + 8 μg/mL DCX; Bacteria: SA_MB5393: in combination with 8 μg/mL dicloxacillin (DCX)
How it was run: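 TarO inhibitors titrated 2-fold from 200 μM (2% DMSO) against MRSA COL, 5×10^5 CFU in CAMHB, with β-lactam fixed at clinical breakpoint (imipenem 4 μg/ml or dicloxacillin 8 μg/ml). Incubated 20 h at 37 °C without shaking; relative growth read as OD600.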

MRSA COL (MB5393) [2] = assay: as above; format: cell-based; conditions: Staphylococcus aureus, read-out: MITC95 TarO inhibitor alone, Bacteria: SA_MB5393
[3] = TarO inhibitor alone, >200 μM = 95% growth inhibition not achieved, 20 hours at 37° C.

O=C(NCc1cccc2cncnc12)N1C(=O)O[C@H](c2cc(C(F)(F)F)cc(C(F)(F)F)c2)[C@@H]1CO [Example 54, (4S,5R)-5-[3,5-bis(trifluoromethyl)phenyl]-4-(hydroxymethyl)-2-oxo-N-(quinazolin-8-yl-methyl)-1,3-oxazolidine-3-carboxamide]
MITC95 TarO inhibitor + 4 μg/mL IPM; Bacteria: SA_MB5393 (MRSA COL (MB5393) [1]): 0.20 µM | MITC95 TarO inhibitor + 8 μg/mL DCX; Bacteria: SA_MB5393 (MRSA COL (MB5393) [1]): 0.65 µM | IC95 (MRSA COL (MB5393) [2]; [3]): > 200 µM

COc1cc([C@H]2OC(=O)N(C(=O)NCc3cncc4ccccc34)[C@H]2CO)cc(C(F)(F)F)c1 [Example 55, (4S,5R)-4-(hydroxymethyl)-N-(isoquinolin-4-ylmethyl)-5-[3-methoxy-5-(trifluoromethyl)phenyl]-2-oxo-1,3-oxazolidine-3-carboxamide]
MITC95 TarO inhibitor + 4 μg/mL IPM; Bacteria: SA_MB5393 (MRSA COL (MB5393) [1]): 0.30 µM | MITC95 TarO inhibitor + 8 μg/mL DCX; Bacteria: SA_MB5393 (MRSA COL (MB5393) [1]): 1.18 µM | IC95 (MRSA COL (MB5393) [2]; [3]): > 200 µM

O=C(NCc1cncc2ccccc12)N1C(=O)O[C@H](c2cc(F)cc(C(F)(F)F)c2)[C@@H]1CO [Example 57, (4S,5R)-5-[3-fluoro-5-(trifluoromethyl)phenyl]-4-(hydroxymethyl)-N-(isoquinolin-4-ylmethyl)-2-oxo-1,3-oxazolidine-3-carboxamide]
MITC95 TarO inhibitor + 4 μg/mL IPM; Bacteria: SA_MB5393 (MRSA COL (MB5393) [1]): 0.33 µM | MITC95 TarO inhibitor + 8 μg/mL DCX; Bacteria: SA_MB5393 (MRSA COL (MB5393) [1]): 1.56 µM | IC95 (MRSA COL (MB5393) [2]; [3]): > 200 µM

COc1cc([C@H]2OC(=O)N(C(=O)NCc3cccc4nccnc34)[C@H]2CO)cc(C(F)(F)F)c1 [Example 58, (4S,5R)-4-(hydroxymethyl)-5-[3-methoxy-5-(trifluoromethyl)phenyl]-2-oxo-N-(quinoxalin-5-ylmethyl)-1,3-oxazolidine-3-carboxamide]
MITC95 TarO inhibitor + 4 μg/mL IPM; Bacteria: SA_MB5393 (MRSA COL (MB5393) [1]): 1.56 µM | MITC95 TarO inhibitor + 8 μg/mL DCX; Bacteria: SA_MB5393 (MRSA COL (MB5393) [1]): 6.25 µM | IC95 (MRSA COL (MB5393) [2]; [3]): > 200 µM

COc1cc([C@H]2OC(=O)N(C(=O)NCc3cccc4cncnc34)[C@H]2CO)cc(C(F)(F)F)c1 [Example 59, (4S,5R)-4-(hydroxymethyl)-5-[3-methoxy-5-(trifluoromethyl)phenyl]-2-oxo-N-(quinazolin-8-ylmethyl)-1,3-oxazolidine-3-carboxamide]
MITC95 TarO inhibitor + 4 μg/mL IPM; Bacteria: SA_MB5393 (MRSA COL (MB5393) [1]): 1.95 µM | MITC95 TarO inhibitor + 8 μg/mL DCX; Bacteria: SA_MB5393 (MRSA COL (MB5393) [1]): 10.42 µM | IC95 (MRSA COL (MB5393) [2]; [3]): > 200 µM

COc1cc(C(F)(F)F)cc([C@H]2OC(=O)N(C(=O)NCc3cncc4cccnc34)[C@H]2C)n1 [Example 60, (4S,5S)—N-((1,6-naphthyridin-8-yl)methyl)-5-(6-methoxy-4-(trifluoromethyl)pyridin-2-yl)-4-methyl-2-oxooxazolidine-3-carboxamide]
MITC95 TarO inhibitor + 4 μg/mL IPM; Bacteria: SA_MB5393 (MRSA COL (MB5393) [1]): 0.33 µM | MITC95 TarO inhibitor + 8 μg/mL DCX; Bacteria: SA_MB5393 (MRSA COL (MB5393) [1]): 1.45 µM | IC95 (MRSA COL (MB5393) [2]; [3]): > 200 µM

COc1cc(C(F)(F)F)cc([C@H]2OC(=O)N(C(=O)NCc3cncc4ccccc34)[C@H]2CO)n1 [Example 63, (4S,5S)-4-(hydroxymethyl)-N-(isoquinolin-4-ylmethyl)-5-(6-methoxy-4-(trifluoromethyl)-pyridin-2-yl)-2-oxooxazolidine-3-carboxamide]
MITC95 TarO inhibitor + 4 μg/mL IPM; Bacteria: SA_MB5393 (MRSA COL (MB5393) [1]): 0.37 µM | MITC95 TarO inhibitor + 8 μg/mL DCX; Bacteria: SA_MB5393 (MRSA COL (MB5393) [1]): 1.13 µM | IC95 (MRSA COL (MB5393) [2]; 20 h): > 200 µM

COc1cc(C(F)(F)F)cc([C@H]2OC(=O)N(C(=O)NCc3cncc4cccnc34)[C@H]2CO)n1 [Example 64, (4S,5S)-4-(hydroxymethyl)-5-[6-methoxy-4-(trifluoromethyl)pyridin-2-yl]-N-(1,6-naphthyridin-8-ylmethyl)-2-oxo-1,3-oxazolidine-3-carboxamide]
MITC95 TarO inhibitor + 4 μg/mL IPM; Bacteria: SA_MB5393 (MRSA COL (MB5393) [1]): 0.94 µM | MITC95 TarO inhibitor + 8 μg/mL DCX; Bacteria: SA_MB5393 (MRSA COL (MB5393) [1]): 4.38 µM | IC95 (MRSA COL (MB5393) [2]; [3]): > 200 µM

C[C@H]1[C@@H](c2cc(C(F)(F)F)cc(C(F)(F)F)c2)OC(=O)N1C(=O)CCc1cncc2ccccc12 [Example 65, (4S,5R)-5-(3,5-bis(trifluoromethyl)phenyl)-3-(3-(isoquinolin-4-yl)propanoyl)-4-methyloxazolidin-2-one]
MITC95 TarO inhibitor + 4 μg/mL IPM; Bacteria: SA_MB5393 (MRSA COL (MB5393) [1]): 0.06 µM | MITC95 TarO inhibitor + 8 μg/mL DCX; Bacteria: SA_MB5393 (MRSA COL (MB5393) [1]): 0.20 µM | IC95 (MRSA COL (MB5393) [2]; [3]): > 200 µM

C[C@H]1[C@@H](c2cc(Cl)cc(C(F)(F)F)c2)OC(=O)N1C(=O)CCc1cccc2ccccc12 [Example 66, (4S,5R)-5-[3-chloro-5-(trifluoromethyl)phenyl]-4-methyl-3-(3-naphthalen-1-ylpropanoyl)-1,3-oxazolidin-2-one]
MITC95 TarO inhibitor + 4 μg/mL IPM; Bacteria: SA_MB5393 (MRSA COL (MB5393) [1]): 0.03 µM | MITC95 TarO inhibitor + 8 μg/mL DCX; Bacteria: SA_MB5393 (MRSA COL (MB5393) [1]): 0.20 µM | IC95 (MRSA COL (MB5393) [2]; [3]): > 200 µM

C[C@H]1[C@@H](c2cc(C(F)(F)F)cc(C(F)(F)F)c2)OC(=O)N1C(=O)CCc1cccc2ccccc12 [Example 67, (4S,5R)-5-[3,5-bis(trifluoromethyl)phenyl]-4-methyl-3-(3-naphthalen-1-ylpropanoyl)-1,3-oxazolidin-2-one]
MITC95 TarO inhibitor + 4 μg/mL IPM; Bacteria: SA_MB5393 (MRSA COL (MB5393) [1]): 0.01 µM | IC95 (MRSA COL (MB5393) [2]; [3]): > 200 µM

C[C@H]1[C@@H](c2cc(C(F)(F)F)cc(C(F)(F)F)c2)OC(=O)N1C(=O)CCc1cccc2sccc12 [Example 68, (4S,5R)-3-[3-(1-benzothiophen-4-yl)propanoyl]-5-[3,5-bis(trifluoromethyl)phenyl]-4-methyl-1,3-oxazolidin-2-one]
MITC95 TarO inhibitor + 4 μg/mL IPM; Bacteria: SA_MB5393 (MRSA COL (MB5393) [1]): 0.01 µM | MITC95 TarO inhibitor + 8 μg/mL DCX; Bacteria: SA_MB5393 (MRSA COL (MB5393) [1]): 0.20 µM | IC95 (MRSA COL (MB5393) [2]; [3]): > 200 µM

C[C@H]1[C@@H](c2cccc(OC(F)(F)F)c2)OC(=O)N1C(=O)CCc1cccc2ccccc12 [Example 69, (4S,5R)-4-methyl-3-(3-naphthalen-1-ylpropanoyl)-5-[3-(trifluoromethoxy)phenyl]-1,3-oxazolidin-2-one]
MITC95 TarO inhibitor + 4 μg/mL IPM; Bacteria: SA_MB5393 (MRSA COL (MB5393) [1]): 0.11 µM | MITC95 TarO inhibitor + 8 μg/mL DCX; Bacteria: SA_MB5393 (MRSA COL (MB5393) [1]): 0.39 µM | IC95 (MRSA COL (MB5393) [2]; [3]): > 200 µM

C[C@H]1[C@@H](c2cc(F)cc(C(F)(F)F)c2)OC(=O)N1C(=O)CCc1cncc2ccccc12 [Example 70, (4S,5R)-5-[3-fluoro-5-(trifluoromethyl)phenyl]-3-(3-isoquinolin-4-ylpropanoyl)-4-methyl-1,3-oxazolidin-2-one]
MITC95 TarO inhibitor + 4 μg/mL IPM; Bacteria: SA_MB5393 (MRSA COL (MB5393) [1]): 0.19 µM | MITC95 TarO inhibitor + 8 μg/mL DCX; Bacteria: SA_MB5393 (MRSA COL (MB5393) [1]): 0.91 µM | IC95 (MRSA COL (MB5393) [2]; [3]): > 200 µM

C[C@H]1[C@@H](c2cc(C(F)(F)F)cc(C(F)(F)F)c2)OC(=O)N1C(=O)Cc1cccc2ccccc12 [Example 71, (4S,5R)-5-[3,5-bis(trifluoromethyl)phenyl]-4-methyl-3-(naphthalen-1-ylacetyl)-1,3-oxazolidin-2-one]
MITC95 TarO inhibitor + 4 μg/mL IPM; Bacteria: SA_MB5393 (MRSA COL (MB5393) [1]): 0.89 µM | IC95 (MRSA COL (MB5393) [2]; [3]): > 200 µM

C[C@H]1[C@@H](c2cccc(OC(F)(F)F)c2)OC(=O)N1C(=O)CCc1cncc2ccccc12 [Example 72, (4S,5R)-3-(3-isoquinolin-4-ylpropanoyl)-4-methyl-5-[3-(trifluoromethoxy)phenyl]-1,3-oxazolidin-2-one]
MITC95 TarO inhibitor + 4 μg/mL IPM; Bacteria: SA_MB5393 (MRSA COL (MB5393) [1]): 0.21 µM | MITC95 TarO inhibitor + 8 μg/mL DCX; Bacteria: SA_MB5393 (MRSA COL (MB5393) [1]): 1.56 µM | IC95 (MRSA COL (MB5393) [2]; [3]): > 200 µM

C[C@H]1[C@@H](c2cc(C(F)(F)F)cc(C(F)(F)F)c2)OC(=O)N1C(=O)CCc1cccc2ncccc12 [Example 73, (4S,5R)-5-[3,5-bis(trifluoromethyl)phenyl]-4-methyl-3-(3-quinolin-5-ylpropanoyl)-1,3-oxazolidin-2-one]
MITC95 TarO inhibitor + 4 μg/mL IPM; Bacteria: SA_MB5393 (MRSA COL (MB5393) [1]): 0.56 µM | MITC95 TarO inhibitor + 8 μg/mL DCX; Bacteria: SA_MB5393 (MRSA COL (MB5393) [1]): 6.25 µM | IC95 (MRSA COL (MB5393) [2]; [3]): > 200 µM

Cc1cc([C@H]2OC(=O)N(C(=O)CCc3cccc4cnccc34)[C@H]2C)cc(C(F)(F)F)c1 [Example 74, (4S,5R)-3-(3-isoquinolin-5-ylpropanoyl)-4-methyl-5-[3-methyl-5-(trifluoromethyl)phenyl]-1,3-oxazolidin-2-one]
MITC95 TarO inhibitor + 4 μg/mL IPM; Bacteria: SA_MB5393 (MRSA COL (MB5393) [1]): 0.30 µM | MITC95 TarO inhibitor + 8 μg/mL DCX; Bacteria: SA_MB5393 (MRSA COL (MB5393) [1]): 6.25 µM | IC95 (MRSA COL (MB5393) [2]; [3]): > 200 µM

C[C@H]1[C@@H](c2cc(C(F)(F)F)cc(C(F)(F)F)c2)OC(=O)N1C(=O)CCc1cccc2ccncc12 [Example 75, (4S,5R)-5-[3,5-bis(trifluoromethyl)phenyl]-3-(3-isoquinolin-8-ylpropanoyl)-4-methyl-1,3-oxazolidin-2-one]
MITC95 TarO inhibitor + 4 μg/mL IPM; Bacteria: SA_MB5393 (MRSA COL (MB5393) [1]): 0.13 µM | MITC95 TarO inhibitor + 8 μg/mL DCX; Bacteria: SA_MB5393 (MRSA COL (MB5393) [1]): 0.78 µM | IC95 (MRSA COL (MB5393) [2]; [3]): > 200 µM

O=C(CCc1cncc2ccccc12)N1CC(c2cc(C(F)(F)F)cc(C(F)(F)F)c2)OC1=O (stereo not drawn) [Example 76, 5-[3,5-bis(trifluoromethyl)phenyl]-3-(3-isoquinolin-4-ylpropanoyl)-1,3-oxazolidin-2-one]
MITC95 TarO inhibitor + 4 μg/mL IPM; Bacteria: SA_MB5393 (MRSA COL (MB5393) [1]): 0.39 µM | IC95 (MRSA COL (MB5393) [2]; [3]): > 200 µM

Cc1cc(C)cc([C@H]2OC(=O)N(C(=O)CCc3cncc4ccccc34)[C@H]2C)c1 [Example 77, (4S,5R)-5-(3,5-dimethylphenyl)-3-(3-isoquinolin-4-ylpropanoyl)-4-methyl-1,3-oxazolidin-2-one]
MITC95 TarO inhibitor + 4 μg/mL IPM; Bacteria: SA_MB5393 (MRSA COL (MB5393) [1]): 0.63 µM | MITC95 TarO inhibitor + 8 μg/mL DCX; Bacteria: SA_MB5393 (MRSA COL (MB5393) [1]): 5.21 µM | IC95 (MRSA COL (MB5393) [2]; [3]): > 200 µM
